Measurements taken from ChEMBL document CHEMBL1158599, “(2S,4S)-1-[2-(1,1-dimethyl-3-oxo-3-pyrrolidin-1-yl-propylamino)acetyl]-4-fluoro-pyrrolidine-2-carbonitrile: a potent, selective, and orally bioavailable dipeptide-derived inhibitor of dipeptidyl peptidase IV” (Bioorg Med Chem Lett, 2010).

Legend:
Dipeptidyl peptidase 4 [1] = biological target: T1, Dipeptidyl peptidase 4 (Homo sapiens, UniProt P27487)
Dipeptidyl peptidase 8 = Dipeptidyl peptidase 8 (Homo sapiens, UniProt Q6V1X1)
Dipeptidyl peptidase 4 [2] = biological target: T1, Dipeptidyl peptidase 4; remark: listed apart in the source
Rattus norvegicus [3] = organism: Rattus norvegicus; assay: animal or person; conditions: Plasma, po, 8 h, read-out: INH
Dipeptidyl peptidase 4 [4] = biological target: T1, Dipeptidyl peptidase 4; remark: listed apart in the source
Dipeptidyl peptidase 9 [5] = biological target: T2, Dipeptidyl peptidase 9 (Homo sapiens, UniProt Q86TI2); assay: Inhibition of DPP9
Target sequence in this assay (Q86TI2 whole entry): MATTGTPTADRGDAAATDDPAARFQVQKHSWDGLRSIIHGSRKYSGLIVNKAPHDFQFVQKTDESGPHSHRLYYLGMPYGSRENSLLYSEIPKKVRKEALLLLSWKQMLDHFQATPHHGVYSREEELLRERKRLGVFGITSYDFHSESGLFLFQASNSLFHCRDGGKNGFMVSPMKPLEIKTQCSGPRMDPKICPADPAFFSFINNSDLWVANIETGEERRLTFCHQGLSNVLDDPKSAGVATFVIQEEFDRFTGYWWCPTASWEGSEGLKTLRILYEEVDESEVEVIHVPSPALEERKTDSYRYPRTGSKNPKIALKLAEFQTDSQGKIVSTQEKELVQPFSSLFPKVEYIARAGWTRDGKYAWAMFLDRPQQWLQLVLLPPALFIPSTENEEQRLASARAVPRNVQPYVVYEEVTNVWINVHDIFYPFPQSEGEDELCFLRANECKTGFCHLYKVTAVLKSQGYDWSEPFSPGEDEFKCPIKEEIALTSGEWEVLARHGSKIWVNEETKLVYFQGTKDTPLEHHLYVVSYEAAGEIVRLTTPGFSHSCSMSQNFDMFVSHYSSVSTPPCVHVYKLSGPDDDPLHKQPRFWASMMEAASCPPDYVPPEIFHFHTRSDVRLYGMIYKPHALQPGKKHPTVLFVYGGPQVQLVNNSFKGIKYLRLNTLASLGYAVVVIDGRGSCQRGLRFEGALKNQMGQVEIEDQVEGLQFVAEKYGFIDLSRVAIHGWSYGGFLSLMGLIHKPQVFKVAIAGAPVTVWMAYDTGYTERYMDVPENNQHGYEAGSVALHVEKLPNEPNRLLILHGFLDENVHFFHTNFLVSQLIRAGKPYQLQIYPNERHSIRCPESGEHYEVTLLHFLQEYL

Rattus norvegicus [6] = organism: Rattus norvegicus; assay: animal or person; conditions: Plasma, po, 0.5 h, read-out: INH
Prolyl endopeptidase FAP = biological target: T3, Prolyl endopeptidase FAP (Homo sapiens, UniProt Q12884); assay: Inhibition of FAP
T3 sequence (Q12884 whole entry): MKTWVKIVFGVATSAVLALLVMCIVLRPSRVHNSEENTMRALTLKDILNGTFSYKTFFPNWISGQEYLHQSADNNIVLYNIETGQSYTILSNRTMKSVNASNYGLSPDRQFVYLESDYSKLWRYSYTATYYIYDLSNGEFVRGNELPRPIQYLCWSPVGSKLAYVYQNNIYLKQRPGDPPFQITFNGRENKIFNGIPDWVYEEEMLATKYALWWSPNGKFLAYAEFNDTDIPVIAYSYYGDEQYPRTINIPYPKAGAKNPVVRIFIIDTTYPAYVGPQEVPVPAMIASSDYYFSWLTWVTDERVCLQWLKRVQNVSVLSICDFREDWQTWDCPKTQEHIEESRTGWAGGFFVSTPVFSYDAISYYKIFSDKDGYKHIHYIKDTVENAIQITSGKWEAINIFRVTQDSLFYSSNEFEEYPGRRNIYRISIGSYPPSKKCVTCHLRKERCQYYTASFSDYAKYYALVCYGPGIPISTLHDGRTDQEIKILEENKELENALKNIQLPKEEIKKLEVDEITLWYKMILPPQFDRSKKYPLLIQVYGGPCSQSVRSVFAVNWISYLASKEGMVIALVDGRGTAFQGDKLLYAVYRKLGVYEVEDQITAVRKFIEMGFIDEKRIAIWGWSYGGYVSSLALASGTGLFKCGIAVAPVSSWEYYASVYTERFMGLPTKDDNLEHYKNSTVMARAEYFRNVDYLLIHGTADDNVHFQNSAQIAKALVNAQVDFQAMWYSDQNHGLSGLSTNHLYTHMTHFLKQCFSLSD

Dipeptidyl peptidase 9 [7] = biological target: T2, Dipeptidyl peptidase 9; assay: Inhibition of DPP9 at 20 uM
Target sequence in this assay (Q86TI2 2-863 limits assumed): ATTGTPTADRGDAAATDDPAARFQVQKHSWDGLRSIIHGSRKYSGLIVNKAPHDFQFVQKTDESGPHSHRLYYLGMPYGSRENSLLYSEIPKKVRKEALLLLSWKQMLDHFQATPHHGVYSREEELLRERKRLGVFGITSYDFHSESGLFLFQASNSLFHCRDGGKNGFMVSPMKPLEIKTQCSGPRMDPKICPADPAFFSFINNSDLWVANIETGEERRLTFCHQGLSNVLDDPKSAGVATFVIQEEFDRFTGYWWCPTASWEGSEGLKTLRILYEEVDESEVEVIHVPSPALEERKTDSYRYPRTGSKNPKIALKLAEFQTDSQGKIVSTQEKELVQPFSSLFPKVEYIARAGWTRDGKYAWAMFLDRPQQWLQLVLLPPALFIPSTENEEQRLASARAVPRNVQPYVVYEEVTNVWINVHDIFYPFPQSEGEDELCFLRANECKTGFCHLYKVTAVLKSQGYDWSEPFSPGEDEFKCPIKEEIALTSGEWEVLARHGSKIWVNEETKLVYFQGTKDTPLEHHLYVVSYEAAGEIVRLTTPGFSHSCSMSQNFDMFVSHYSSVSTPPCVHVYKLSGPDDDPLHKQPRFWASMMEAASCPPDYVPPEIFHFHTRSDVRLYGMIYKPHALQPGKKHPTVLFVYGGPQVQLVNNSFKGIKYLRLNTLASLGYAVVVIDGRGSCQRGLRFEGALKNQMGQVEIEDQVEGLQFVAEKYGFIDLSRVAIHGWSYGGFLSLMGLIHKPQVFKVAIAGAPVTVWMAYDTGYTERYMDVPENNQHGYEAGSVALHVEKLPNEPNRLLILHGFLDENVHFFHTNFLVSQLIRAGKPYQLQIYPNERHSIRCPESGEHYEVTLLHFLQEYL

Dipeptidyl peptidase 2 = Dipeptidyl peptidase 2 (Homo sapiens, UniProt Q9UHL4); assay: Inhibition of DPP2
[8] = Inhibition of L-type calcium channel; conditions: concentration not given here
[9] = biological target: Prothrombin (Homo sapiens) (UniProt P00734); assay: Inhibition of thrombin at 10 uM
[10] = biological target: Beta-secretase 1 (Homo sapiens) (UniProt P56817); assay: Inhibition of beta secretase at 10 uM
[11] = biological target: T4, Pro-cathepsin H (Homo sapiens) (UniProt P09668); assay: Inhibition of cathepsin H at 10 uM
T4 sequence (whole entry): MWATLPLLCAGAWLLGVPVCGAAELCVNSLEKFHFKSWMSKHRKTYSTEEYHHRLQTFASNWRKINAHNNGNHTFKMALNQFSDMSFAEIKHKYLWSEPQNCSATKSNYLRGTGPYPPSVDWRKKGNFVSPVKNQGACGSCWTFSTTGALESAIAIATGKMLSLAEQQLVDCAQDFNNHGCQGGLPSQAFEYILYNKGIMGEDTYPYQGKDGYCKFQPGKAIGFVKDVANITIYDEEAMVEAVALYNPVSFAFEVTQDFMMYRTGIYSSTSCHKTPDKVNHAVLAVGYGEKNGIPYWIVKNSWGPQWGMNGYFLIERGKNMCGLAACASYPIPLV

[12] = biological target: Voltage-gated inwardly rectifying potassium channel KCNH2 (Homo sapiens, UniProt Q12809); assay: Inhibition of human ERG
[13] = Inhibition of trypsin at 10 uM
[14] = biological target: Cathepsin B (Homo sapiens) (UniProt P07858); assay: Inhibition of cathepsin B at 10 uM
[15] = Oral bioavailability in dog; assay type: ADME, organism-based, Canis lupus familiaris; conditions: in vivo
[16] = Oral bioavailability in rat; assay type: ADME, organism-based; conditions: in vivo
[17] = Inhibition of sodium channel site 2; conditions: concentration not given here
Caspase-1 (Homo sapiens) = biological target: T5, Caspase-1 (Homo sapiens) (UniProt P29466); assay: Inhibition of caspase1 at 10 uM
T5 sequence (whole entry): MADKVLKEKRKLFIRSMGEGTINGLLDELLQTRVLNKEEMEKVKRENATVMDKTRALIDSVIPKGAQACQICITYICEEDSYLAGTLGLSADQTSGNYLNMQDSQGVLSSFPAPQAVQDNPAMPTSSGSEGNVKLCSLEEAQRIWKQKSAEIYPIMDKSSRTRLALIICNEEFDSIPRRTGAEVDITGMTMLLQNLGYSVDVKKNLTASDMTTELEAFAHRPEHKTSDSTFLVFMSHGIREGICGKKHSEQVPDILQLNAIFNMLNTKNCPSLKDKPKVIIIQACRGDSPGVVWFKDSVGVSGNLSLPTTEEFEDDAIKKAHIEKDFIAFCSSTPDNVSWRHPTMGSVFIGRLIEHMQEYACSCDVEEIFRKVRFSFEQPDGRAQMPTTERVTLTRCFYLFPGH

[18] = biological target: Coagulation factor X (Homo sapiens) (UniProt P00742); assay: Inhibition of factor 10a at 10 uM
Mus musculus = assay: Antihyperglycemic activity in C57BL/6J mouse assessed as reduction in blood glucose AUC at 3 mg/kg, po administered 30 mins before glucose challenge; assay type: functional; design: scale not given: the % may be the effect or the level left
[19] = biological target: T6, Caspase-10 (Homo sapiens) (UniProt Q92851); assay: Inhibition of caspase 10 at 10 uM
T6 sequence (whole entry): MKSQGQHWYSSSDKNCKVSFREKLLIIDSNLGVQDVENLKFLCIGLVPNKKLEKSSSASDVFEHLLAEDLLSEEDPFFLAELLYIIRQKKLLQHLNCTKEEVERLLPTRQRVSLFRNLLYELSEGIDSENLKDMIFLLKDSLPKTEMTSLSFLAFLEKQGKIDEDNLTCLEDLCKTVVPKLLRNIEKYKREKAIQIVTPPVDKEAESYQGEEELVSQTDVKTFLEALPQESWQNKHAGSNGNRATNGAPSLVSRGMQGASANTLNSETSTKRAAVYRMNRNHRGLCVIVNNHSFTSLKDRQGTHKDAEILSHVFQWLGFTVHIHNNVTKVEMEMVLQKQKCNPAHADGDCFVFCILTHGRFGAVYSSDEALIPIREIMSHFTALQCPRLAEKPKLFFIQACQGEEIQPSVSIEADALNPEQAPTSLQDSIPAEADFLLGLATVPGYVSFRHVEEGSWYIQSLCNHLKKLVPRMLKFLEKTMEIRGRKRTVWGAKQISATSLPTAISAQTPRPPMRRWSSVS

T1 sequence (P27487 whole entry): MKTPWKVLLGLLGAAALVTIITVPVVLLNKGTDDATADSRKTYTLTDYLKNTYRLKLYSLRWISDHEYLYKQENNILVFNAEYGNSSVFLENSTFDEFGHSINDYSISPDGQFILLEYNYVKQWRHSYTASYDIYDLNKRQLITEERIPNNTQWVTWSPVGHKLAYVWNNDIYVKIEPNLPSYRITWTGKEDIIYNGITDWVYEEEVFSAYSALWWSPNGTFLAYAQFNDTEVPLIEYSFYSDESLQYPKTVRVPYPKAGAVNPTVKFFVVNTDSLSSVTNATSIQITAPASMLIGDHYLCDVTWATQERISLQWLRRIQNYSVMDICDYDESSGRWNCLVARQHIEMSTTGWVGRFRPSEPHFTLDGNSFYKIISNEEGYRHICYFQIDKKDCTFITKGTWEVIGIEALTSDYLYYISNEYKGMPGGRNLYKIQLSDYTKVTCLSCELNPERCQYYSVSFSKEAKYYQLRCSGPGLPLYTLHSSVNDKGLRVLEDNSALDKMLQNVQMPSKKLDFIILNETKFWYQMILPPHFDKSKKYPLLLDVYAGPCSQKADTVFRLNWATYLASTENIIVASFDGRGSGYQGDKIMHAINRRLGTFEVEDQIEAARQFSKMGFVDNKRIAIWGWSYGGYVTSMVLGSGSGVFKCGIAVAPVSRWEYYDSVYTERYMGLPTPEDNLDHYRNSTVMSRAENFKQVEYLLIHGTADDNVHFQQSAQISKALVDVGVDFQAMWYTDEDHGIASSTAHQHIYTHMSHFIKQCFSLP
Dipeptidyl peptidase 8, sequence (Q6V1X1 whole entry): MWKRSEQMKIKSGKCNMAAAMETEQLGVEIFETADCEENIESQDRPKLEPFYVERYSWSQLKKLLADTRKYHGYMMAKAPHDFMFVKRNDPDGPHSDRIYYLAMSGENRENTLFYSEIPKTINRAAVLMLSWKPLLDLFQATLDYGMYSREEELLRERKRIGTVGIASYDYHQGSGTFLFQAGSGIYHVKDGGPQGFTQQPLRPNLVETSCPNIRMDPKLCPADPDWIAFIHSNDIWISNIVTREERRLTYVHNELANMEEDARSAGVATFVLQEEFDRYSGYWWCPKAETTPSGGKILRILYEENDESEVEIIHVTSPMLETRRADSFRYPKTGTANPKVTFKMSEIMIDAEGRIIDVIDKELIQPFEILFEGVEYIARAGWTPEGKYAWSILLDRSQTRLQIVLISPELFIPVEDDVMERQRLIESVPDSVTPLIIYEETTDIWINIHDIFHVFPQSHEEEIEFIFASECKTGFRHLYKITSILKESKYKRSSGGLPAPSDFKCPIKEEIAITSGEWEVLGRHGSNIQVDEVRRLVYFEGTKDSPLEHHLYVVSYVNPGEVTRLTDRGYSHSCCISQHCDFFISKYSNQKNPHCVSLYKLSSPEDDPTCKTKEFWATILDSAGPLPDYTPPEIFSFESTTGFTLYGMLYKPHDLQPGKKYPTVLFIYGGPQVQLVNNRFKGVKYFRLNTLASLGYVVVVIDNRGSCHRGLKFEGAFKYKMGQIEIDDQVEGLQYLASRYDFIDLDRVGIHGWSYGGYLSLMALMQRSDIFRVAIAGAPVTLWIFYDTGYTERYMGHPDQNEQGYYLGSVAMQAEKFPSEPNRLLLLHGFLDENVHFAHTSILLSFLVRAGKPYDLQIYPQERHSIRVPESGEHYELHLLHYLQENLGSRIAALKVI
Voltage-gated inwardly rectifying potassium channel KCNH2, sequence (Q12809 whole entry): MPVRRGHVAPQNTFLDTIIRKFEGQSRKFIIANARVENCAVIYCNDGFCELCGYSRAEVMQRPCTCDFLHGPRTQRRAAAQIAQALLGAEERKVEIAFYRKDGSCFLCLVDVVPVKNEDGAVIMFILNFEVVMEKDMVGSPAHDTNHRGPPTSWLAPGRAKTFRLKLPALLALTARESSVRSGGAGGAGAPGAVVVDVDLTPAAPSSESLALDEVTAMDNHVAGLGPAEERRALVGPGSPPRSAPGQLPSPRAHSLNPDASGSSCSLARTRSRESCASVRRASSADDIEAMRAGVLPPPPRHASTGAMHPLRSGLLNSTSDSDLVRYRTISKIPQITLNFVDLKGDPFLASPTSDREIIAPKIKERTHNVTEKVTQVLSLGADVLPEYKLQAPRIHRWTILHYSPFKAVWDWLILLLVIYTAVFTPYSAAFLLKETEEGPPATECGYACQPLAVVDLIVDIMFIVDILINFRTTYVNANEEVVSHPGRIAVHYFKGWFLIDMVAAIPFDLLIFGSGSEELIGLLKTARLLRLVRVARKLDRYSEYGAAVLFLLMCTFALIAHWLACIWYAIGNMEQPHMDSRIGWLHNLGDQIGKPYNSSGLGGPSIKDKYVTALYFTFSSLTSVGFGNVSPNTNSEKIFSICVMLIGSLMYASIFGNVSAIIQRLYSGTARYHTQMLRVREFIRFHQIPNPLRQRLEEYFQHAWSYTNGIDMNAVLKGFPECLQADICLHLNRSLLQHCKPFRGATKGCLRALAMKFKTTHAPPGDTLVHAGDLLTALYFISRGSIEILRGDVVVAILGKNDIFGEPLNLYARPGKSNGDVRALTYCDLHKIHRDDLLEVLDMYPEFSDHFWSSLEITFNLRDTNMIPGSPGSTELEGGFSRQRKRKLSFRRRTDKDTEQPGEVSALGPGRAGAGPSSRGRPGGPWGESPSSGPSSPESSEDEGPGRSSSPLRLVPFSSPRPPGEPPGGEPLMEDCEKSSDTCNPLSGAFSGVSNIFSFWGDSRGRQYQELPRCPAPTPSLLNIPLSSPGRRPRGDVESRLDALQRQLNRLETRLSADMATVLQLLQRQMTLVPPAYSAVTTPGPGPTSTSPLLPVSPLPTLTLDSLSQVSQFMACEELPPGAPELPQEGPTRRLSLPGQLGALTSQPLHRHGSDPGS
Coagulation factor X (Homo sapiens), sequence (P00742 41-179 limits assumed): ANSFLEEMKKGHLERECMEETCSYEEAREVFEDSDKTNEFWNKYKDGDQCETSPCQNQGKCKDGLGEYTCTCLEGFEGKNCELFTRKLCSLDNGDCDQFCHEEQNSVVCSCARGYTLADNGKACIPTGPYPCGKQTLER
Coagulation factor X (Homo sapiens), sequence (P00742 235-488 limits assumed): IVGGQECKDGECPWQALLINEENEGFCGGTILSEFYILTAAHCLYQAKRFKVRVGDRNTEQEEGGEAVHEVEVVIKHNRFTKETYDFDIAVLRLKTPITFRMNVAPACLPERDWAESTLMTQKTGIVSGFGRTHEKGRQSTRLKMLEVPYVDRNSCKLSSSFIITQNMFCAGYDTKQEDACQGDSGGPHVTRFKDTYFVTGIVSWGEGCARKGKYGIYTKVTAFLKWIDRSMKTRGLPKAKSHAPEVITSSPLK

Row | Structure (SMILES) | IC50 (Dipeptidyl peptidase 4 [1]) | IC50 (Dipeptidyl peptidase 8) | IC50 (Dipeptidyl peptidase 4 [2]) | inhibition in vivo at 3 mg/kg (Rattus norvegicus [3]) | IC50 (Dipeptidyl peptidase 4 [4]) | IC50 (Dipeptidyl peptidase 9 [5]) | inhibition in vivo at 3 mg/kg (Rattus norvegicus [6]) | further results
1 | CC(C)(CC(=O)N1CCOCC1)NCC(=O)N1C[C@@H](F)C[C@H]1C#N | 20 nM | > 20000 nM | 14 nM | 59% | 13 nM | > 20000 nM | 89% | –
2 | N[C@@H](CC(=O)N1CCn2c(nnc2C(F)(F)F)C1)Cc1cc(F)c(F)cc1F [SITAGLIPTIN] | – | – | – | 20% | – | – | 30% | –
3 | CC(C)(CC(=O)N1CCC(=O)CC1)NCC(=O)N1C[C@@H](F)C[C@H]1C#N | 26 nM | > 20000 nM | – | – | – | > 20000 nM | – | –
4 | C#C[C@@H]1C[C@H](F)CN1C(=O)CC(C)(C)CC(=O)N[C@H]1C[C@@H]1c1cccc(Cl)c1 | 15 nM | > 20000 nM | 210 nM | 30% | 847 nM | – | 66% | IC50 (Prolyl endopeptidase FAP): > 20000 nM; inhibition (Dipeptidyl peptidase 9 [7]): 72%; IC50 (Dipeptidyl peptidase 2): > 100000 nM
5 | CC(C)(CC(=O)N1CCSC1)NCC(=O)N1C[C@@H](F)C[C@H]1C#N | 27 nM | > 20000 nM | – | 56% | – | > 20000 nM | 77% | –
6 | CC(C)(CC(=O)N1C2CCC1CC2)NCC(=O)N1C[C@@H](F)C[C@H]1C#N | 66 nM | > 20000 nM | – | – | – | > 20000 nM | – | –
7 | COc1ccc(NC(=O)CC(C)(C)NCC(=O)N2C[C@@H](F)C[C@H]2C#N)nc1 | 19 nM | > 20000 nM | – | 41% | 18 nM | – | 88% | inhibition (Dipeptidyl peptidase 9 [7]): 61%
8 | N#C[C@@H]1CCCN1C(=O)CNC12CC3CC(CC(O)(C3)C1)C2 [VILDAGLIPTIN] | – | – | – | 73% | – | – | 84% | –
9 | CC(C)(CC(=O)N1CCCC1)NCC(=O)N1C[C@@H](F)C[C@H]1C#N [DBPR-108] | 15 nM | > 100000 nM | 10 nM | 70% | 5 nM | > 50000 nM | 82% | inhibition [8]: -9%; inhibition [9]: -7%; inhibition [10]: 3%; inhibition [11]: 0%; inhibition (INH) [12]: -6%; inhibition [13]: 0%; inhibition [14]: -10%; bioavailability [15]: 68%; bioavailability [16]: 19%; inhibition [17]: 1%; inhibition (Caspase-1 (Homo sapiens)): 23%; inhibition [18]: 2%; Activity (Mus musculus): 67%; inhibition [19]: 8%
10 | CC(C)(CC(=O)N1CC[C@H](O)C1)NCC(=O)N1C[C@@H](F)C[C@H]1C#N | 50 nM | > 20000 nM | – | – | – | > 20000 nM | – | –
11 | CC(C)(CC(=O)N1CC[C@@H](O)C1)NCC(=O)N1C[C@@H](F)C[C@H]1C#N | 30 nM | > 20000 nM | 23 nM | 15% | 21 nM | > 20000 nM | 63% | –
12 | COc1ccc(NC(=O)CC(C)(C)NCC(=O)N2CCC[C@H]2C#N)cc1OC | – | > 50000 nM | – | – | – | > 20000 nM | – | IC50 (Prolyl endopeptidase FAP): > 50000 nM; IC50 (Dipeptidyl peptidase 2): > 20000 nM
13 | COc1ccc(NC(=O)CC(C)(C)NCC(=O)N2C[C@@H](F)C[C@H]2C#N)cc1OC | 27 nM | > 20000 nM | – | 18% | – | – | 86% | inhibition (Dipeptidyl peptidase 9 [7]): 73%
